Assay results reported in patent publication US20230348495A1, “A COMPOUND HAVING INHIBITORY ACTIVITY AGAINST KRAS G12D MUTATION” (TAIHO PHARMACEUTICAL CO., LTD., priority 2019, published 2023).

Tests used:
KRAS G12D = KRAS G12D (Homo sapiens (Human), UniProt P01116, G12D); assay: Inhibitory activity on KRAS G12D nucleotide (GDP-GTP) exchange reaction in vitro (SOS1-dependent, BODIPY FL GDP); format: biochemical; settings: BODIPY FL GDP-bound KRAS G12D, compound 25° C. 1 hour, then SOS1 and GMPPNP 30 minutes
Chain of KRAS G12D (P01116 other isoform, or with tags, fused parts or gaps G12D (already in the parent)): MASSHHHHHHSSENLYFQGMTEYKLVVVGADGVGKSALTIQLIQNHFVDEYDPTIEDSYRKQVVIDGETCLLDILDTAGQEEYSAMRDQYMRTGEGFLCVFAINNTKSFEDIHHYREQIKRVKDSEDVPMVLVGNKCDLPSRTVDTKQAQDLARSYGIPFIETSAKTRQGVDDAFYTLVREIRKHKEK
From the text: Test Example 1: Evaluation of inhibitory activity of compounds on KRAS G12D nucleotide (GDP-GTP) exchange reaction in vitro
Recombinant KRAS G12D (conjugated N-terminus His6-tag, TEV protease cleavage site and KRAS G12D residues 1-169 (SEQ ID NO: 1), prepared by the method described as below) and cleaved recombinant SOS1 (residues 564-1049(SEQ ID NO: 2), prepared by the method as below) proteins were expressed in E. coli and purified by affinity chromatography.
To prepare the recombinant KRAS G12D, the codon-optimized DNA sequence for the recombinant KRAS G12D (conjugated N-terminus His6-tag, TEV protease cleavage site and KRAS G12D residues 1-169 (SEQ ID NO: 3))was synthesized by GeneArt Technology (Life Technologies, Carlsbad, CA, US). The construct was subcloned into the expression vector pET28a and transformed into Escherichia coli BL21 (DE3) strains (Novagen, Madison, WI, US).
The transformed strain was cultivated in 2 L Luria Broth medium with 25 μg/mL kanamycin at a temperature of 37° C. to a density of 0.6 (OD600), then induced for expression with […] IPTG and further cultivated for 4 h. The cell pellet was resuspended in ice-cold lysis buffer containing 50 mM Tris-HCl (pH 7.5), 200 mM NaCl, and 100 μM TCEP (tris(2-carboxyethyl)phosphine).
After sonication, the disrupted debris was removed by centrifugation. The supernatant was applied on to Ni-NTA affinity gels, and the recombinant human KRAS (G12D) eluted fraction was collected. The buffer of the collected fraction was exchanged to the buffer containing 50 mM Tris-HCl (pH 7.5), 200 mM NaCl, 10% Glycerol, and 5 mM DTT by PD-10 column (GE-Healthcare, Chicago, IL, US).
To prepare the cleaved recombinant SOS1, the codon optimized DNA sequences for the recombinant SOS1 (residues 564-1049 with a conjugated N-terminus His6-tag and TEV protease cleavage site (SEQ ID NO: 4)) was synthesized by GeneArt Technology (Life Technologies). The construct was subcloned into the expression vector pET28a and transformed into Escherichia coli BL21 (DE3) strains (Novagen, Madison, WI, USA).
The transformed strain was cultivated in 2 L Terrific Broth medium with 25 μg/mL kanamycin at a temperature of 37° C. to a density of 0.8 (OD600), then shifted to a temperature of 16° C., induced for expression with […] IPTG, and further cultivated for 16 h. The cell pellet was resuspended in ice-cold lysis buffer containing 50 mM Tris-HCl (pH 7.5), 200 mM NaCl, and 100 μM TCEP.
After sonication, the disrupted debris was removed by centrifugation. The supernatant was applied on to Ni-NTA affinity gels, and the recombinant human SOS1 eluted fraction was collected. Then, His6-tagged TEV protease was added to the collected fraction, dialyzed with the ice-cold lysis buffer for 16 h at a temperature of 4° C., and applied on to Ni-NTA affinity gels. The flow-through fraction containing the tag-cleavaged recombinant human SOS1 was collected. The buffer of the collected fraction was exchanged to the buffer containing 50 mM Tris-HCl (pH 7.5), 200 mM NaCl, 10% Glycerol, and 5 mM DTT by PD-10 column (GE-Healthcare).
To prepare BODIPY FL (fluorescent dye) GDP-bound KRAS G12D protein, 50 μM KRAS G12D protein was incubated with 0.5 mM BODIPY FL GDP in a loading buffer (20 mM Tris-HCl (pH 7.5), 50 mM NaCl, 1 mM DTT and 2.5 mM EDTA) for 1 hour on ice. After the incubation, MgCl2 was added to a final concentration of 10 mM, followed by incubation at room temperature for 30 minutes.
The mixture was allowed to pass through a NAP-5 column to remove free nucleotides and purified BODIPY FL GDP-bound KRAS G12D protein was used for compound evaluation.
For the measurement of the inhibitory activity of compounds on GDP-GTP exchange rate of recombinant KRAS G12D, BODIPY FL GDP-bound KRAS G12D protein was incubated with various concentrations of compound in a reaction buffer (20 mM Tris-HCl (pH 7.5), 100 mM NaCl, 1 mM MgCl2, 2 mM DTT, 0.1% Tween 20) at 25° C. for 1 hour. […]

[1] = tested on: KRAS-G12D mutant cell line (A-427); assay: Growth inhibition activity on KRAS-G12D mutant cell line (A-427), CellTiter-Glo 3D; format: cell-based; settings: Homo sapiens, 72 h, A-427 cells, 3-day culture with compound, read-out: A427 CTX IC50
Description: Test Example 2: A measurement test of growth inhibition activity on KRAS-G12D mutant cell line (A-427) (in vitro) A-427 cells (ATCC, Cat #: HTB-53), which are a KRAS-G12D mutant human lung cancer cell line, were suspended in a 10% fetal bovine serum-containing E-MEM medium (manufactured by Fujifilm Wako Pure Chemical Corporation). The cell suspension was seeded into each well of a 384-well U bottom microplate and cultured in an incubator containing 5% CO2 gas at 37° C. for 1 day.
The compound of the present invention was dissolved in DMSO, and the test compound was diluted with DMSO to give a concentration 500 times the final concentration. The solution of the test compound in DMSO was diluted with the medium used for suspending cells and added to each well of the cell-culture plate to give a DMSO final concentration of 0.2%, followed by culture in an incubator containing 5% CO2 gas at 37° C. for another 3 days. The cell count after a 3-day culture in the presence of the compound was measured using CellTiter-Glo 3D Reagent (manufactured by Promega Corporation).
All wells were added with CellTiter-Glo 3D Reagent and mixed for 10 minutes. 30 minutes after mixing, luminescence was measured by a plate reader. The growth inhibition rate was calculated from the following equation, and the concentration of the test compound at which 50% inhibition was achieved (IC50 (μM)) was determined.
Growth Inhibition Rate(%)=(C−T)/(C)×100
T: the emission intensity in a well into which a test compound was added.
C: the emission intensity in a well into which a test compound was not added.

Work on `CN(C)CC1(COc2nc3c(c(N4CC5CCC(C4)N5)n2)CCN(c2cc(O)cc4cccc(Br)c24)C3)CC1(C)C` (stereo not shown) [Example 30, 4-(4-(3,8-diazabicyclo[3.2.1]octan-3-yl)-2-((1-((dimethylamino)methyl)-2,2-dimethylcyclopropyl)methoxy)-5,8-dihydropyrido[3,4-d]pyrimidin-7(6H)-yl)-5-bromonaphthalen-2-ol] yielded an IC50 (KRAS G12D) of 11.7 nM and an IC50 [1] of 1380 nM.

With `CN1CCC[C@H]1COc1nc2c(c(N3CC4CCC(C3)N4)n1)CCN(c1cc(O)cc3cccc(Br)c13)C2` [Example 31, 4-(4-(3,8-diazabicyclo[3.2.1]octan-3-yl)-2-(((S)-1-methylpyrrolidin-2-yl)methoxy)-5,8-dihydropyrido[3,4-d]pyrimidin-7(6H)-yl)-5-bromonaphthalen-2-ol] the IC50 (KRAS G12D) was 17.7 nM and the IC50 [1] was 1950 nM.

In the case of `CO[C@@H]1C[C@@H](COc2nc3c(c(N4CC5CCC(C4)N5)n2)CCN(c2cc(O)cc4cccc(Br)c24)C3)N(C)C1` [Example 32, 4-(4-(3,8-diazabicyclo[3.2.1]octan-3-yl)-2-(((2S,4R)-4-methoxy-1-methylpyrrolidin-2-yl)methoxy)-5,8-dihydropyrido[3,4-d]pyrimidin-7(6H)-yl)-5-bromonaphthalen-2-ol], the IC50 (KRAS G12D) is reported as 3.2 nM and the IC50 [1] is reported as 1080 nM.

`C#Cc1cccc2cc(O)cc(C3Cc4nc(OCC5(CN6CCOCC6)CC5)nc(N5CC6CCC(C5)N6)c4CO3)c12` (stereo not shown) [Example 33, 4-(4-(3,8-diazabicyclo[3.2.1]octan-3-yl)-2-((1-(morpholinomethyl)cyclopropyl)methoxy)-7,8-dihydro-5H-pyrano[4,3-d]pyrimidin-7-yl)-5-ethynylnaphthalen-2-ol] showed an IC50 (KRAS G12D) of 11.3 nM and an IC50 [1] of 1270 nM.

With `C=Cc1cccc2cc(O)cc(C(=O)N3Cc4nc(OCC5(CN6CC[C@@H](F)C6)CC5)nc(N5CC6CCC(C5)N6)c4C3)c12` [Example 34, (4-(3,8-diazabicyclo[3.2.1]octan-3-yl)-2-((1-(((R)-3-fluoropyrrolidin-1-yl)methyl)cyclopropyl)methoxy)-5,7-dihydro-6H-pyrrolo[3,4-d]pyrimidin-6-yl) (3-hydroxy-8-vinylnaphthalen-1-yl)methanone] the IC50 (KRAS G12D) was 14.1 nM and the IC50 [1] was 7140 nM.

Work on `C=Cc1cccc2cc(O)cc(C(=O)N3Cc4nc(OCC5(CN6CCOCC6)CC5)nc(N5CC6CCC(C5)N6)c4C3)c12` [Example 35, (4-(3,8-diazabicyclo[3.2.1]octan-3-yl)-2-((1-(morpholinomethyl)cyclopropyl)methoxy)-5,7-dihydro-6H-pyrrolo[3,4-d]pyrimidin-6-yl) (3-hydroxy-8-vinylnaphthalen-1-yl) methanone] yielded an IC50 (KRAS G12D) of 13.5 nM and an IC50 [1] of 8840 nM.

In the case of `C#Cc1cccc2cc(N)nc(N3CCc4c(nc(OCC5(CN(C)C)CC5)nc4N4CC5CCC(C4)N5)C3)c12` [Example 36, 1-(4-(3,8-diazabicyclo[3.2.1]octan-3-yl)-2-((1-((dimethylamino)methyl)cyclopropyl)methoxy)-5,8-dihydropyrido[3,4-d]pyrimidin-7(6H)-yl)-8-ethynylisoquinolin-3-amine], the IC50 (KRAS G12D) is reported as 27.4 nM and the IC50 [1] is reported as > 10000 nM.

`CN(C)CC1(COc2nc3c(c(N4CC5CCC(C4)N5)n2)COC(c2cc(O)cc4cccc(Br)c24)C3)CC1` (stereo not shown) [Example 37, 4-(4-(3,8-diazabicyclo[3.2.1]octan-3-yl)-2-((1-((dimethylamino)methyl)cyclopropyl)methoxy)-7,8-dihydro-5H-pyrano[4,3-d]pyrimidin-7-yl)-5-bromonaphthalen-2-ol] was tested, and the IC50 (KRAS G12D) was 9.6 nM and the IC50 [1] was 2940 nM.
